Experimental findings from US9809562B2, “NAT10 modulators for treating or preventing laminopathies, aging and cancer” (CAMBRIDGE ENTERPRISE LIMITED, priority 2014, dated 2017) are described below.

Structures are written as SMILES. Structures can show the parent of a compound that is named as a salt.

Experiment [1] has as its system siLMNA cells. Description: Micrococcal nuclease digestion sensitivity assay and nuclear area (chromatin compaction). It counts as cell-based, human. How it is done: CellProfiler software was used to quantify nuclear circularity and nuclear area from DAPI staining pictures, using the “object size shape” measurement. The AreaShape measurement allowed the calculation of the Form Factor index ([…]) corresponding to circularity (a Form Factor of 1 reflecting a perfect circle), as well as the calculation of nuclear Area.
1×10^6 cells were trypsinized, harvested, and washed once with 1 ml of 1×RSB buffer (10 mM Tris, pH 7.6, 15 mM NaCl, and 1.5 mM MgCl2). After centrifugation ([…]), the cell pellet was resuspended in 1 ml of 1×RSB buffer with 1% Triton-X 100 and homogenized by five strokes with a loose-fitting glass pestle to release nuclei. Nuclei were collected by centrifugation (13,000×g) and washed twice with 1 ml of buffer A (15 mM Tris, pH 7.5, 15 mM NaCl, 60 mM KCl, 0.34 M sucrose, 0.5 mM spermidine, 0.15 mM spermine, 0.25 mM PMSF, and 0.1% β-mercaptoethanol). Nuclei were resuspended in Buffer A and aliquoted into 100 μl aliquots. […] DNA was purified using the Qiagen PCR purification kit and 1500 ng of DNA was analysed on a 1.5% agarose gel. Digestion profiles were analysed using ImageJ and values were adjusted relative to the global intensity of each lane to compensate for DNA loading variations.

Experiment [2] concerns tissues from Lmna^G609G/G609G mice. Description: γH2AX relative to total H2AX in mouse tissues (western blot). The class given is in vivo. How it is done:
Tissues from wild type mice or Lmna^G609G/G609G mice treated with Compound 2 were harvested and proteins were extracted and loaded on a western blot which is shown in FIG. 26. Lmna^G609G/G609G mice indeed show progerin expression (readily detectable mainly in the Lung tissues), confirming their genotype. DNA damage was assessed by the DNA double strand break marker γH2AX that was quantified using a Licor Odyssey Imaging system.

Experiment [3] relates to cells derived from patients with Emery-Dreifuss muscular dystrophy (EDMD). The experiment in a line: γH2AX in Emery-Dreifuss muscular dystrophy cells. The class given is cell-based, human. From the text:
FIG. 12: Remodelin improves global cellular fitness of HGPS cells. A) NAT10 depletion in normal fibroblasts and HGPS AG11498 cells observed by western blotting, and showing that siNAT10 has no effect on Lamin A/C expression and processing. B) IF images showing nuclear shape improvement and decreased numbers of γH2AX foci in HGPS cells upon Remodelin treatment. Scale bars: 10 μm. C) Western Blotting analysis showing that Remodelin decreases γH2AX levels in both HGPS cell lines tested. D) IF images showing nuclear shape improvement and decreased intensity of γH2AX staining in Emery-Dreifuss muscular dystrophy cells (EDMD) upon Remodelin treatment. Scale bars: 10 μm. E) Western Blotting analysis showing that Remodelin decreases γH2AX levels in EDMD. F) Western blotting analysis showing the effect of Remodelin on the p53 and DNA damage signalling pathways in HGPS AG11498 cells. G) Representative IF images of H3K9me3 or SUN1 patterns quantified in H). Scale bars: 20 μm. […]
Total cell extracts were prepared by scraping cells in SDS lysis buffer (4% SDS, 20% glycerol, and 120 mM Tris-HCl, pH 6.8), boiling for 5 minutes at 95° C., followed by 10 strokes through a 25-gauge needle. […] Detection and quantification was performed with an imager (Odyssey; LI-COR Biosciences). […]

The test system of experiment [4] is siLMNA cells. The experiment in a line: Golgi apparatus integrity (anti-Giantin) in siLMNA cells. It counts as cell-based, human. From the text:
FIG. 13: Inhibiting NAT10 acetyltransferase activity modifies microtubule organisation to rescue nuclear shape defects. A) Microtubule network visualisation by inverted IF pictures of α-Tubulin. B) Nuclear shape visualisation after treating cells with microtubule or actin cytoskeleton disrupting agents. C) Visualisation of nuclear shape (DAPI) and Golgi (anti-Giantin) integrity in siLMNA cells. D) Fractionation of polymerised (P) and soluble (S) tubulin upon Remodelin or nocodazole (Nocod.) treatment. […] Right: quantification of cells with the indicated patterns (means of three independent experiments with n>103±s.e.m.). F) Laminopathic cells have enlarged, misshapen nuclei associated with disorganized chromatin structure. Upon Remodelin treatment, NAT10 acetyltransferase activity is inhibited, leading to disruption of microtubule anchorage at the centrosome and release of microtubule forces on the nuclear envelope. This release of mechanical stress on the nucleus contributes to nuclear shape rescue and global improvement of cellular fitness and chromatin organization. Scale bars: 20 μm.
Cells were washed with PBS and fixed for 20 minutes with 2% PFA in PBS. Cells were permeabilised for 5 minutes with PBS/0.2% Triton X-100, and blocked with PBS/0.2% Tween 20 (PBS-T) containing 5% BSA. […]

The subject of experiment [5] is HGPS cells. The experiment in a line: Proliferation assay of HGPS cells (IncuCyte). The class given is cell-based, human. Conditions: Remodelin 1 μM. How it is done:
HGPS cells were plated at the same number in 24 well dishes. Next day, Remodelin (1 μM) or small molecule Compound 2 (1 to 10 μM), were added to the wells and plates were transferred into an IncuCyte microscope (Essen BioScience). Phase contrast pictures were acquired every 2 hours over several days. Percentage of cell confluence was calculated by the Cell Player integrated software (Essen BioScience) and analysed with GraphPad Prism® software.

Regarding `Clc1ccc(-c2csc(NN=C3CCCC3)n2)cc1` [Compound 2, 4-(4-Chlorophenyl)-2-(2-cyclopentylidenehydrazinyl)thiazole Hydrochloride Salt], in experiment [1], the “global chromatin compaction (MNase sensitivity)” value was “decreased MNase sensitivity” and the nuclear area entry was “reduced nuclear area”. In addition, the “DNA damage (γH2AX relative to total H2AX)” value in experiment [2] (heart and lung, treated vs untreated Lmna^G609G/G609G mice) is “clear decrease of DNA damage”. Also, the “DNA damage (γH2AX relative to total H2AX)” value in experiment [2] (liver extracts) is “No effect”.

In the case of `N#Cc1ccc(-c2csc(NN=C3CCCC3)n2)cc1` [Compound 1, 4-(4-Cyanophenyl)-2-(2-cyclopentylidenehydrazinyl)thiazole], the “γH2AX levels in EDMD cells” value in experiment [3] is “decreased levels of γH2AX”. Moreover, the Golgi apparatus integrity entry in experiment [4] is recorded as “did not affect Golgi apparatus integrity”. In experiment [5], the “cell proliferation of HGPS cells” value is given as “enhanced cell proliferation capacity”.
